Reference: PubChem BioAssay (NCI)
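Dose response: 5 concentrations. Exposure: 48 h. Format: 96-well plates. Endpoint: linear interpolation; highest concentration if not reached. TGI: total growth inhibition.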

Legend:
Assay in all cases: DTP human tumour cell line panel, 48 h
U251 CNS = tested on: U251 CNS
HCC-2998 colon = tested on: HCC-2998 colon
MDA-N = tested on: MDA-N
A549 NSCLC = tested on: A549 NSCLC
TK-10 renal = tested on: TK-10 renal
HCT-15 colon = tested on: HCT-15 colon
KM12 colon = tested on: KM12 colon
RPMI-8226 leukemia = tested on: RPMI-8226 leukemia
786-0 renal = tested on: 786-0 renal
RXF 393 renal = tested on: RXF 393 renal
OVCAR-4 ovarian = tested on: OVCAR-4 ovarian

CC(=O)N[C@@H](Cc1ccc(O)cn1)C(=O)NCc1ccc(Cl)cc1
TGI (U251 CNS): > 100 µM | TGI (HCC-2998 colon): > 100 µM | TGI (MDA-N): > 100 µM | TGI (A549 NSCLC): > 100 µM | TGI (TK-10 renal): > 100 µM | TGI (HCT-15 colon): > 100 µM | TGI (KM12 colon): > 100 µM | TGI (RPMI-8226 leukemia): > 100 µM | TGI (786-0 renal): > 100 µM | TGI (RXF 393 renal): > 100 µM | TGI (OVCAR-4 ovarian): > 100 µM

CC(=O)OCC1OC(OCCCOP(=O)(OCCC#N)OCC2OC(n3cnc4c(N)ncnc43)C(OC(=O)c3ccccc3)C2OC(=O)c2ccccc2)C(OC(C)=O)C(OC(C)=O)C1OC(C)=O (stereo unspecified)
TGI (U251 CNS): > 100 µM | TGI (HCC-2998 colon): > 100 µM | TGI (MDA-N): > 100 µM | TGI (A549 NSCLC): > 100 µM | TGI (TK-10 renal): > 100 µM | TGI (HCT-15 colon): > 100 µM | TGI (KM12 colon): > 100 µM | TGI (RPMI-8226 leukemia): > 100 µM | TGI (786-0 renal): > 100 µM | TGI (RXF 393 renal): > 100 µM | TGI (OVCAR-4 ovarian): > 100 µM

Nc1nc(Sc2ccc([N+](=O)[O-])c3nonc23)c2[nH]cnc2n1
TGI (U251 CNS): 21.7 µM | TGI (HCC-2998 colon): 7.93 µM | TGI (MDA-N): 12.2 µM | TGI (A549 NSCLC): 25.1 µM | TGI (TK-10 renal): 6.4 µM | TGI (HCT-15 colon): 14.1 µM | TGI (KM12 colon): 15.3 µM | TGI (RPMI-8226 leukemia): 5.62 µM | TGI (786-0 renal): 3.18 µM | TGI (RXF 393 renal): 8.32 µM | TGI (OVCAR-4 ovarian): 15.9 µM

O=C1NC(N2CCCC(CO)C2)=N/C1=C\c1cccs1 (stereo unspecified)
TGI (U251 CNS): > 100 µM | TGI (HCC-2998 colon): > 100 µM | TGI (MDA-N): > 100 µM | TGI (A549 NSCLC): > 100 µM | TGI (TK-10 renal): > 100 µM | TGI (HCT-15 colon): > 100 µM | TGI (KM12 colon): > 100 µM | TGI (RPMI-8226 leukemia): > 100 µM | TGI (786-0 renal): > 100 µM | TGI (RXF 393 renal): > 100 µM | TGI (OVCAR-4 ovarian): > 100 µM

CC1CC(=O)N(N(C)C)C2(C#N)C(=O)N=C(N)C12C#N (stereo unspecified)
TGI (U251 CNS): > 100 µM | TGI (HCC-2998 colon): > 100 µM | TGI (MDA-N): > 100 µM | TGI (A549 NSCLC): > 100 µM | TGI (TK-10 renal): > 100 µM | TGI (HCT-15 colon): > 100 µM | TGI (KM12 colon): > 100 µM | TGI (RPMI-8226 leukemia): 99.1 µM | TGI (786-0 renal): > 100 µM | TGI (RXF 393 renal): > 100 µM | TGI (OVCAR-4 ovarian): > 100 µM

COCN1C(=O)[C@@H]2CCCN2C(=O)c2ccc(N)cc21
TGI (U251 CNS): > 100 µM | TGI (HCC-2998 colon): > 100 µM | TGI (MDA-N): > 100 µM | TGI (A549 NSCLC): > 100 µM | TGI (TK-10 renal): > 100 µM | TGI (HCT-15 colon): > 100 µM | TGI (KM12 colon): > 100 µM | TGI (RPMI-8226 leukemia): > 100 µM | TGI (786-0 renal): > 100 µM | TGI (RXF 393 renal): > 100 µM | TGI (OVCAR-4 ovarian): > 100 µM

COC(=O)/C=C(C)/C=C\COC1CCCCO1 (stereo unspecified)
TGI (U251 CNS): > 100 µM | TGI (HCC-2998 colon): > 100 µM | TGI (MDA-N): > 100 µM | TGI (A549 NSCLC): > 100 µM | TGI (TK-10 renal): > 100 µM | TGI (HCT-15 colon): > 100 µM | TGI (KM12 colon): > 100 µM | TGI (RPMI-8226 leukemia): > 100 µM | TGI (786-0 renal): > 100 µM | TGI (RXF 393 renal): > 100 µM | TGI (OVCAR-4 ovarian): > 100 µM

CNC(=O)OCc1cnc([N+](=O)[O-])n1C
TGI (U251 CNS): > 100 µM | TGI (HCC-2998 colon): > 100 µM | TGI (MDA-N): > 100 µM | TGI (A549 NSCLC): > 100 µM | TGI (TK-10 renal): > 100 µM | TGI (HCT-15 colon): > 100 µM | TGI (KM12 colon): > 100 µM | TGI (RPMI-8226 leukemia): > 100 µM | TGI (786-0 renal): > 100 µM | TGI (RXF 393 renal): > 100 µM | TGI (OVCAR-4 ovarian): > 100 µM

Cc1ccc(C(=O)N/N=C(\N=Nc2ccc([N+](=O)[O-])cc2)c2ccc(N(CCC#N)CCC#N)cc2C)cc1
TGI (U251 CNS): > 100 µM | TGI (HCC-2998 colon): > 100 µM | TGI (MDA-N): > 100 µM | TGI (A549 NSCLC): > 100 µM | TGI (TK-10 renal): > 100 µM | TGI (HCT-15 colon): > 100 µM | TGI (KM12 colon): > 100 µM | TGI (RPMI-8226 leukemia): > 100 µM | TGI (786-0 renal): > 100 µM | TGI (RXF 393 renal): 50.9 µM | TGI (OVCAR-4 ovarian): > 100 µM

Nc1nc(N)c2nc(CN(C=O)c3ccc(C(=O)O)cc3)cnc2n1
TGI (U251 CNS): > 100 µM | TGI (HCC-2998 colon): > 100 µM | TGI (MDA-N): > 100 µM | TGI (A549 NSCLC): > 100 µM | TGI (TK-10 renal): > 100 µM | TGI (HCT-15 colon): > 100 µM | TGI (KM12 colon): > 100 µM | TGI (RPMI-8226 leukemia): > 100 µM | TGI (786-0 renal): > 100 µM | TGI (RXF 393 renal): > 100 µM | TGI (OVCAR-4 ovarian): > 100 µM

CCOC(=O)C(O)(CC1=NC(C(=O)OC)(C(=O)OC)C(c2cccc(C=O)c2)O1)C(=O)OCC (stereo unspecified)
TGI (U251 CNS): > 100 µM | TGI (HCC-2998 colon): > 100 µM | TGI (MDA-N): > 100 µM | TGI (A549 NSCLC): > 100 µM | TGI (TK-10 renal): > 100 µM | TGI (HCT-15 colon): > 100 µM | TGI (KM12 colon): > 100 µM | TGI (RPMI-8226 leukemia): > 100 µM | TGI (786-0 renal): > 100 µM | TGI (RXF 393 renal): > 100 µM | TGI (OVCAR-4 ovarian): > 100 µM

Cc1ccc(S(=O)(=O)N/N=C2\C=CC3(CC2)C(=O)N(I)c2ccccc23)cc1 (stereo unspecified)
TGI (U251 CNS): > 100 µM | TGI (HCC-2998 colon): > 100 µM | TGI (MDA-N): > 100 µM | TGI (A549 NSCLC): > 100 µM | TGI (TK-10 renal): > 100 µM | TGI (HCT-15 colon): > 100 µM | TGI (KM12 colon): > 100 µM | TGI (RPMI-8226 leukemia): > 100 µM | TGI (786-0 renal): > 100 µM | TGI (RXF 393 renal): 98 µM | TGI (OVCAR-4 ovarian): > 100 µM

COC(=O)c1ccccc1C1CN=NC12Cc1ccc(C)cc1C2=O (stereo unspecified)
TGI (U251 CNS): > 100 µM | TGI (HCC-2998 colon): > 100 µM | TGI (MDA-N): > 100 µM | TGI (A549 NSCLC): > 100 µM | TGI (TK-10 renal): > 100 µM | TGI (HCT-15 colon): > 100 µM | TGI (KM12 colon): > 100 µM | TGI (RPMI-8226 leukemia): > 100 µM | TGI (786-0 renal): > 100 µM | TGI (RXF 393 renal): > 100 µM | TGI (OVCAR-4 ovarian): > 100 µM

C[N+](C)(CCNc1ccc(NCC[N+](C)(C)Cc2ccc([N+](=O)[O-])cc2)c2c1C(=O)c1c(O)ccc(O)c1C2=O)Cc1ccc([N+](=O)[O-])cc1
TGI (U251 CNS): > 50 µM | TGI (HCC-2998 colon): > 50 µM | TGI (MDA-N): > 50 µM | TGI (A549 NSCLC): > 50 µM | TGI (TK-10 renal): > 50 µM | TGI (HCT-15 colon): > 50 µM | TGI (KM12 colon): 14.5 µM | TGI (RPMI-8226 leukemia): > 50 µM | TGI (786-0 renal): > 50 µM | TGI (RXF 393 renal): > 50 µM | TGI (OVCAR-4 ovarian): > 50 µM

CCN(CC)c1c(C(C)(C)C)c(=O)n2ccsc2c1OC(C)=O
TGI (U251 CNS): 30.8 µM | TGI (HCC-2998 colon): 32.2 µM | TGI (MDA-N): 34.6 µM | TGI (A549 NSCLC): 28.2 µM | TGI (TK-10 renal): 34.7 µM | TGI (HCT-15 colon): 30.7 µM | TGI (KM12 colon): 30.6 µM | TGI (RPMI-8226 leukemia): > 100 µM | TGI (786-0 renal): 34.1 µM | TGI (RXF 393 renal): 30.7 µM | TGI (OVCAR-4 ovarian): 28.9 µM

O=c1c(-c2nc3ccccc3c3ccccc3c2=O)nc2ccccc2c2ccccc12
TGI (U251 CNS): 60.3 µM | TGI (HCC-2998 colon): 68 µM | TGI (MDA-N): 69 µM | TGI (A549 NSCLC): > 100 µM | TGI (TK-10 renal): > 100 µM | TGI (HCT-15 colon): > 100 µM | TGI (KM12 colon): > 100 µM | TGI (RPMI-8226 leukemia): > 100 µM | TGI (786-0 renal): > 100 µM | TGI (RXF 393 renal): 82.9 µM | TGI (OVCAR-4 ovarian): > 100 µM
